Usually EC50 stands for the concentration at which the effect is half-maximal. A word on the IC50: it is the point on the concentration scale where inhibition reaches its midpoint.

Read-outs that look alike come from different tables or passages of the source.

The values below come from patent publication US10316017B2, “COT modulators and methods of use thereof” (Gilead Sciences, Inc., priority 2015, dated 2019).

Assay [1] concerns TNFα production in LPS-stimulated human monocytes. Description: Cot Monocyte TNFα Cell Based Assay. As to conditions: Homo sapiens, Monocyte, read-out: EC50 TNF. A digest of the protocol: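 Human monocytes (5,000 cells/well) pretreated with compound for 1 hour at 37° C (0.5% DMSO), then stimulated with 50 pg/ml LPS for 4 hours. Total TNFα measured by TR-FRET after overnight antibody incubation at room temp, expressed as percent of control between unstimulated and stimulated cells.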

For assay [2], the target named is T1, human Cot catalytic domain (30-397 amino acids) (Homo sapiens, UniProt P41279).
T1 construct: Purified recombinant human Cot catalytic domain (30-397 amino acids) was purchased from Cama Biosciences; purchased Cama Biosciences (so in the source)
Description: High Throughput Cot Biochemical Assay (KinEASE TR-FRET). As to conditions: Cot KinEASE TR-FRET, 400 μM ATP; read-out: IC50 HTRF. In outline:
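Recombinant human Cot catalytic domain (aa 30-397), 5 nM, with 1 μM STK3 peptide and 400 μM ATP in MOPS pH 7.0 buffer with MgOAc, DTT, BSA, NP-40, glycerol, 0.1% DMSO. Phosphorylated XL665-peptide detected by Eu-[…] antibody TR-FRET.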
In general terms: Time-resolved FRET reads energy transfer from a long-lived donor to a nearby acceptor.

Setting [3] is: LPS-stimulated human monocytes, TNFα TR-FRET.

T1 sequence (P41279 30-397): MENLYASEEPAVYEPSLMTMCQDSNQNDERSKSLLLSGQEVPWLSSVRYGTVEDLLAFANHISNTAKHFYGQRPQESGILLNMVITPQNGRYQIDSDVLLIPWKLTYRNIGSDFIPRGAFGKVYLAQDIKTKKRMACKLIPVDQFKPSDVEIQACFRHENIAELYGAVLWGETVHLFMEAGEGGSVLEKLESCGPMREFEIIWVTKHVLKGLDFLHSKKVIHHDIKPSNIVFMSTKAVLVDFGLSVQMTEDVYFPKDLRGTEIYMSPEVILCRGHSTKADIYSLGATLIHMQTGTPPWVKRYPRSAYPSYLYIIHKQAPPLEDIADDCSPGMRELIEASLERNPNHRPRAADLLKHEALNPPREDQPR

In the case of `[2H][C@](Nc1cc(C#N)c2ncc(C#N)c(NCC(C)(C)C)c2c1)(c1cccc(C#N)c1)c1cn(C2(CF)CC2)nn1` [Example 1007, (S)-6-(((3-cyanophenyl)(1-(1-(fluoromethyl)cyclopropyl)-1H-1,2,3-triazol-4-yl)methyl-d)amino)-4-(neopentylamino)quinoline-3,8-dicarbonitrile], the EC50 in assay [1] (setting [3]) is 66 nM. In addition, in assay [2], the IC50 came out at 2 nM.

As to `Cc1c(C#N)cccc1[C@H](Nc1cc(Cl)c2ncc(C#N)c(NCC(C)(C)C)c2c1)c1cn(C2(C(N)=O)CC2)nn1` [Example 1008, (S)-1-(4-(((8-chloro-3-cyano-4-(neopentylamino)quinolin-6-yl)amino)(3-cyano-2-methylphenyl)methyl)-1H-1,2,3-triazol-1-yl)cyclopropane-1-carboxamide], the EC50 in assay [1] (setting [3]) is 123 nM. For the same compound, in assay [2], the IC50 was 1 nM.

Consider `Cc1c(C#N)cccc1[C@H](Nc1cc(Cl)c2ncc(C#N)c(NCC(C)(C)C)c2c1)c1cn(C2(C(N)=O)CCC2)nn1` [Example 1009, (S)-1-(4-(((8-chloro-3-cyano-4-(neopentylamino)quinolin-6-yl)amino)(3-cyano-2-methylphenyl)methyl)-1H-1,2,3-triazol-1-yl)cyclobutane-1-carboxamide], for which, in assay [1] (setting [3]), the EC50 was found to be 67 nM. The IC50 in assay [2] was 1 nM.

For `[2H][C@](Nc1cc(Cl)c2ncc(C#N)c(NCC(C)(C)C)c2c1)(c1ccc(Cl)cc1)c1cn(C23CCN(CC2)CC3)nn1` [Example 1010, (S)-8-chloro-6-(((4-chlorophenyl)(1-(quinuclidin-4-yl)-1H-1,2,3-triazol-4-yl)methyl-d)amino)-4-(neopentylamino)quinoline-3-carbonitrile], the EC50 in assay [1] is 928 nM. Besides, the IC50 in assay [2] came to 69 nM.

As for `CC(C)(C)CNc1c(C#N)cnc2c(C#N)cc(N[C@H](c3cn(C4(c5ccncc5)CC4)nn3)c3ccccc3Cl)cc12` [Example 1011, (S)-6-(((2-chlorophenyl)(1-(1-(pyridin-4-yl)cyclopropyl)-1H-1,2,3-triazol-4-yl)methyl)amino)-4-(neopentylamino) quinoline-3,8-dicarbonitrile], in assay [1] (setting [3]), the EC50 was determined as 22 nM. Moreover, the IC50 in assay [2] was 3 nM.

`Cc1c(C#N)cccc1[C@H](Nc1cc(Cl)c2ncc(C#N)c(NCC(C)(C)C)c2c1)c1cn(C2(C(F)F)CC2)nn1` [Example 1012, (S)-8-chloro-6-(((3-cyano-2-methylphenyl)(1-(1-(difluoromethyl)cyclopropyl)-1H-1,2,3-triazol-4-yl)methyl)amino)-4-(neopentylamino)quinoline-3-carbonitrile]: the EC50 in assay [1] (setting [3]) is 36 nM. In addition, in assay [2], the IC50 worked out at 3 nM.

For `Cc1c(C#N)cccc1[C@H](Nc1cc(C#N)c2ncc(C#N)c(NCC(C)(C)C)c2c1)c1cn(C2(C(F)F)CC2)nn1` [Example 1013, (S)-6-(((3-cyano-2-methylphenyl)(1-(1-(difluoromethyl)cyclopropyl)-1H-1,2,3-triazol-4-yl)methyl)amino)-4-(neopentylamino)quinoline-3,8-dicarbonitrile], the EC50 in assay [1] (setting [3]) stood at 23 nM. Also, the IC50 in assay [2] came to 2 nM.

For the compound `CC(C)(C)CNc1c(C#N)cnc2c(C#N)cc(N[C@H](c3cn(C4(C(N)=O)CCC4)nn3)c3ccccc3Cl)cc12` [Example 1014, (S)-1-(4-((2-chlorophenyl) ((3,8-dicyano-4-(neopentylamino)quinolin-6-yl)amino)methyl)-1H-1,2,3-triazol-1-yl)cyclobutane-1-carboxamide], the EC50 in assay [1] (setting [3]) stood at 106 nM. Besides, the IC50 in assay [2] came to 3 nM.

With `CC(C)(C)CNc1c(C#N)cnc2c(F)cc(N[C@H](c3cn(C4CC4)nn3)c3ccccc3Cl)cc12` [Example 1015, (S)-6-(((2-chlorophenyl)(1-cyclopropyl-1H-1,2,3-triazol-4-yl)methyl)amino)-8-fluoro-4-(neopentylamino)quinoline-3-carbonitrile], the concentration for a half-maximal effect (EC50) in assay [1] (setting [3]) stood at 462 nM. In assay [2], the IC50 was 14 nM.

With `[2H][C@](Nc1cc(Cl)c2ncc(C#N)c(NCC(C)(C)c3ccccn3)c2c1)(c1ccc(F)cc1)c1cn(C2CC2)nn1` [Example 1016, (S)-8-chloro-6-(((1-cyclopropyl-1H-1,2,3-triazol-4-yl)(4-fluorophenyl)methyl-d)amino)-4-((2-methyl-2-(pyridin-2-yl)propyl)amino)quinoline-3-carbonitrile], the EC50 in assay [1] (setting [3]) was at least 1000 nM. In addition, the IC50 in assay [2] came to 28 nM.

With `CC(C)(C)CNc1c(C#N)cnc2c(F)cc(N[C@H](c3cn(C4(C(F)(F)F)CC4)nn3)c3ccccc3Cl)cc12` [Example 1017, (S)-6-(((2-chlorophenyl)(1-(1-(trifluoromethyl)cyclopropyl)-1H-1,2,3-triazol-4-yl)methyl)amino)-8-fluoro-4-(neopentylamino)quinoline-3-carbonitrile], the EC50 in assay [1] (setting [3]) was at least 1000 nM. Moreover, in assay [2], the IC50 was determined as 85 nM.

For the compound `[2H][C@](Nc1cc(C#N)c2ncc(C#N)c(NC3CCCC3(C)C)c2c1)(c1ccc(F)cc1)c1cn(C2(C(F)(F)F)CC2)nn1` (stereo partly drawn) [Example 1018, 4-((2,2-dimethylcyclopentyl)amino)-6-(((S)-(4-fluorophenyl)(1-(1-(trifluoromethyl)cyclopropyl)-1H-1,2,3-triazol-4-yl)methyl-d)amino)quinoline-3,8-dicarbonitrile], the EC50 in assay [1] (setting [3]) stood at 326 nM. Besides, the IC50 in assay [2] is 22 nM.

Take `CC(C)(C)CNc1c(C#N)cnc2c(C#N)cc(N[C@H](c3cn(C4(C(N)=O)CCCC4)nn3)c3ccccc3Cl)cc12` [Example 1020, (S)-1-(4-((2-chlorophenyl) ((3,8-dicyano-4-(neopentylamino)quinolin-6-yl)amino)methyl)-1H-1,2,3-triazol-1-yl)cyclopentane-1-carboxamide]: in assay [1] (setting [3]), the EC50 is 161 nM. For the same compound, in assay [2], the IC50 is 6 nM.

As to `CC(C)(C)CNc1c(C#N)cnc2c(C#N)cc(N[C@H](c3cn(C(C)(C)C(N)=O)nn3)c3ccccc3Cl)cc12` [Example 1021, (S)-2-(4-((2-chlorophenyl) ((3,8-dicyano-4-(neopentylamino)quinolin-6-yl)amino)methyl)-1H-1,2,3-triazol-1-yl)-2-methylpropanamide], in assay [1] (setting [3]), the EC50 was determined as 234 nM. Further, the IC50 in assay [2] was found to be 4 nM.

As for `CC(C)(C)CNc1c(C#N)cnc2c(C#N)cc(N[C@H](c3cn(C4(C(N)=O)CCOC4)nn3)c3ccccc3Cl)cc12` (stereo partly drawn) [Example 1022, 3-(4-((S)-(2-chlorophenyl) ((3,8-dicyano-4-(neopentylamino)quinolin-6-yl)amino)methyl)-1H-1,2,3-triazol-1-yl)tetrahydrofuran-3-carboxamide], the EC50 in assay [1] (setting [3]) turned out to be 503 nM. Besides, the IC50 in assay [2] worked out at 7 nM.

As for `CC(C)(C)CNc1c(C#N)cnc2c(C#N)cc(N[C@H](c3cn(C4(C(N)=O)CCOCC4)nn3)c3ccccc3Cl)cc12` [Example 1023, (S)-4-(4-((2-chlorophenyl) ((3,8-dicyano-4-(neopentylamino)quinolin-6-yl)amino)methyl)-1H-1,2,3-triazol-1-yl)tetrahydro-2H-pyran-4-carboxamide], in assay [1] (setting [3]), the EC50 was at least 1000 nM. Also, the IC50 in assay [2] came out at 21 nM.

Take `Cc1ccccc1[C@H](Nc1cc(C#N)c2ncc(C#N)c(NCC(C)(C)C)c2c1)c1cn(C2(C#N)CC2)nn1` [Example 1024, (S)-6-(((1-(1-cyanocyclopropyl)-1H-1,2,3-triazol-4-yl)(o-tolyl)methyl)amino)-4-(neopentylamino)quinoline-3,8-dicarbonitrile]: the EC50 in assay [1] (setting [3]) turned out to be 54 nM. Moreover, the IC50 in assay [2] is 5 nM.

`CC(C)(C)CNc1c(C#N)cnc2c(C#N)cc(N[C@H](c3cn(C4(C#N)CC4)nn3)c3ccccc3C(F)F)cc12` [Example 1025, (S)-6-(((1-(1-cyanocyclopropyl)-1H-1,2,3-triazol-4-yl)(2-(difluoromethyl)phenyl)methyl)amino)-4-(neopentylamino)quinoline-3,8-dicarbonitrile]: the EC50 in assay [1] (setting [3]) turned out to be 131 nM. In assay [2], the IC50 was 10 nM.

Turning to `CC(C)(C)CNc1c(C#N)cnc2c(C#N)cc(N[C@H](c3cn(C4(C#N)CC4)nn3)c3ccccc3CO)cc12` [Example 1026, (S)-6-(((1-(1-cyanocyclopropyl)-1H-1,2,3-triazol-4-yl)(2-(hydroxymethyl)phenyl)methyl)amino)-4-(neopentylamino)quinoline-3,8-dicarbonitrile], the EC50 in assay [1] (setting [3]) was found to be 371 nM. In assay [2], the IC50 was 7 nM.

With `CC(C)(C)CNc1c(C#N)cnc2c(C#N)cc(N[C@H](c3cn(C4(C#N)CC4)nn3)c3cccc(C#N)c3Cl)cc12` [Example 1027, (S)-6-(((2-chloro-3-cyanophenyl)(1-(1-cyanocyclopropyl)-1H-1,2,3-triazol-4-yl)methyl)amino)-4-(neopentylamino)quinoline-3,8-dicarbonitrile], the EC50 in assay [1] (setting [3]) is 141 nM. In assay [2], the IC50 was found to be 4 nM.

With `[2H][C@](Nc1cc(Cl)c2ncc(C#N)c(N[C@H](CC)c3ccccc3)c2c1)(c1ccc(F)cc1)c1cn(C2(C(F)F)CC2)nn1` [Example 1028, 8-chloro-6-(((S)-(1-(1-(difluoromethyl)cyclopropyl)-1H-1,2,3-triazol-4-yl)(4-fluorophenyl)methyl-d)amino)-4-(((R)-1-phenylpropyl)amino)quinoline-3-carbonitrile], the EC50 in assay [1] (setting [3]) was 259 nM. In addition, the IC50 in assay [2] is 17 nM.

On to `[2H][C@@](Nc1cc(C#N)c2ncc(C#N)c(NCC(C)(C)C)c2c1)(c1cn(C(C)(C)C)nn1)c1ccccc1Cl` [Example 1029, (S)-6-(((1-(tert-butyl)-1H-1,2,3-triazol-4-yl)(2-chlorophenyl)methyl-d)amino)-4-(neopentylamino)quinoline-3,8-dicarbonitrile], for which, in assay [1] (setting [3]), the EC50 was determined as 225 nM. Moreover, in assay [2], the IC50 is 14 nM.
